In patent publication US10821115B2, “Compounds that inhibit Mcl-1 protein” (priority 2017, dated 2020):
Like-named read-outs stand apart in the source and are kept apart here.

How the values were obtained:
[1] = system: human multiple myeloma cell line, OPM-2; test: Cell viability assay (OPM-2 10 FBS), CellTiter-Glo; assay type: cell-based
Summary of the method: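 IC50 values come from 4-parameter logistic fits of luminescence signals reflecting cell viability. Treatment lasted 16 h at 37 °C in complete medium with 10% FBS, starting from 3000 cells/well.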

[2] = target: recombinant human Mcl-1 (residues 171-327) / Bim interaction (Homo sapiens (Human), UniProt Q07820); test: biochemical; assay type: binding; conditions: read-out: Mcl-1 HTRF IC50
[3] = Homo sapiens, OPM-2, 16 h, read-out: OPM-2 10% FBS IC50 IP, OPM-2 cells, 10% FBS, 16 h, CellTiter-Glo
[4] = TR-FRET, Mcl-1(171-327) / biotin-Bim (51-76)
[5] = Homo sapiens, OPM-2, 16 h, read-out: OPM-2 10% FBS IC50 IP, OPM-2 cells, 10% FBS, 16 h incubation
[6] = 0.1 nM Mcl-1(171-327), 0.05 nM biotin-Bim (51-76)
[7] = read-out: OPM-2 10% FBS IC50 IP, OPM-2 cells, 10% FBS, 16 h, CellTiter-Glo

Chain of recombinant human Mcl-1 (residues 171-327) / Bim interaction (Q07820 171-327): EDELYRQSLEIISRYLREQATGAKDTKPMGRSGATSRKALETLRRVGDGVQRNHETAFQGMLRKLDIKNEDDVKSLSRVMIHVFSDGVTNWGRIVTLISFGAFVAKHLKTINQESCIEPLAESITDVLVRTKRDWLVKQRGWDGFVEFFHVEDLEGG

Compound | IC50 [1, 3] | IC50 [2, 4] | IC50 [1, 5] | IC50 [2, 6] | IC50 [1, 7]
CO[C@]1(COCCN2CCOCC2)/C=C/C[C@H](C)[C@@H](C)S(=O)(=O)NC(=O)c2ccc3c(c2)N(C[C@@H]2CC[C@H]21)C[C@@]1(CCCc2cc(Cl)ccc21)CO3 [Example 100594, (1S,3′R,6′R,7′R,8′E,11′S,12′R)-6-chloro-7′-methoxy-11′,12′-dimethyl-7′-((2-(4-morpholinyl)ethoxy)methyl)-3,4-dihydro-2H,15′H-spiro[naphthalene-1,22′-[20]oxa[13]thia[1,14]diazatetracyclo [14.7.2.0~3,6~.0~19,24~]pentacosa[8,16,18,24]tetraen]-15′-one 13′,13′-dioxide] | 241 nM | 0.143 nM | – | – | –
CO[C@]1(CN2CCN(CCF)CC2)/C=C/C[C@H](C)[C@@H](C)S(=O)(=O)NC(=O)c2ccc3c(c2)N(C[C@@H]2CC[C@H]21)C[C@@]1(CCCc2cc(Cl)ccc21)CO3 [Example 96, (1S,3′R,6′R,7′R,8′E,11′S,12′R)-6-chloro-7′-((4-(2-fluoroethyl)-1-piperazinyl)methyl)-7′-methoxy-11′,12′-dimethyl-3,4-dihydro-2H,15′H-spiro[naphthalene-1,22′-[20]oxa[13]thia[1,14]diazatetracyclo [14.7.2.0~3,6~.0~19,24~]pentacosa[8,16,18,24]tetraen]-15′-one 13′,13′-dioxide] | – | – | 111 nM | 0.114 nM | –
CCO[C@]1(CN2CCN(CCOC)CC2)/C=C/C[C@H](C)[C@@H](C)S(=O)(=O)NC(=O)c2ccc3c(c2)N(C[C@@H]2CC[C@H]21)C[C@@]1(CCCc2cc(Cl)ccc21)CO3 [Example 123, (1S,3′R,6′R,7′R,8′E,11′S,12′R)-6-chloro-7′-ethoxy-7′-((4-(2-methoxyethyl)-1-piperazinyl)methyl)-11′,12′-dimethyl-3,4-dihydro-2H,15′H-spiro[naphthalene-1,22′-[20]oxa[13]thia[1,14]diazatetracyclo [14.7.2.0~3,6~.0~19,24~]pentacosa[8,16,18,24]tetraen]-15′-one 13′,13′-dioxide] | – | – | 228 nM | 0.205 nM | –
C[C@@H]1[C@@H](C)CCC[C@@](O)(CC(=O)N2CCCC2)[C@@H]2CC[C@H]2CN2C[C@@]3(CCCc4cc(Cl)ccc43)COc3ccc(cc32)C(=O)NS1(=O)=O [Example 100108, (1S,3′R,6′R,7′R,11′S,12′R)-6-chloro-7′-hydroxy-11′,12′-dimethyl-7′-(2-oxo-2-(1-pyrrolidinyl)ethyl)-3,4-dihydro-2H,15′H-spiro[naphthalene-1,22′-[20]oxa[13]thia[1,14]diazatetracyclo [14.7.2.0~3,6~.0~19,24~]pentacosa[16,18,24]trien]-15′-one 13′,13′-dioxide] | – | 0.436 nM | – | – | 358 nM
C[C@@H]1[C@@H](C)C/C=C/[C@]2(CCCO2)[C@@H]2CC[C@H]2CN2C[C@@]3(CCCc4cc(Cl)ccc43)COc3ccc(cc32)C(=O)NS1(=O)=O (stereo in doubt) [Example 100132] | 675 nM | 0.543 nM | – | – | –
C[C@@H]1[C@@H](C)CCC[C@@]2(C[C@H]2C(=O)N2CCN3CCOC[C@H]3C2)[C@@H]2CC[C@H]2CN2C[C@@]3(CCCc4cc(Cl)ccc43)COc3ccc(cc32)C(=O)NS1(=O)=O [Example 100303, (1R,2R,3′R,6′R,11′S,12′R,22′S)-6″-chloro-2-((9aR)-hexahydropyrazino[2,1-c][1,4]oxazin-8(1H)-ylcarbonyl)-11′,12′-dimethyl-3″,4″-dihydro-2″H,15′H-dispiro[cyclopropane-1,7′-[20]oxa[13]thia[1,14]diazatetracyclo [14.7.2.0~3,6~.0~19,24~]pentacosa[16,18,24]triene-22′,1″-naphthalen]-15′-one 13′,13′-dioxide] | – | 3.64 nM | – | – | 7330 nM
CO[C@@H](C(=O)N(C)C)[C@]1(O)/C=C/C[C@H](C)[C@@H](C)S(=O)(=O)NC(=O)c2ccc3c(c2)N(C[C@@H]2CC[C@H]21)C[C@@]1(CCCc2cc(Cl)ccc21)CO3 [Example 100285, (2R)-2-((1S,3′R,6′R,7′S,8′E,11′S,12′R)-6-chloro-7′-hydroxy-11′,12′-dimethyl-13′,13′-dioxido-15′-oxo-3,4-dihydro-2H-spiro[naphthalene-1,22′-[20]oxa[13]thia[1,14]diazatetracyclo [14.7.2.0~3,6~.0~19,24~]pentacosa[8,16,18,24]tetraen]-7′-yl)-2-methoxy-N,N-dimethylethanamide] | 642 nM | 0.241 nM | – | – | –
CO[C@@]1(CN2CCC(N(C)C)CC2)/C=C/C[C@H](C)[C@@H](C)S(=O)(=O)NC(=O)c2ccc3c(c2)N(C[C@@H]2CC[C@H]21)C[C@@]1(CCCc2cc(Cl)ccc21)CO3 [Example 118, (1S,3′R,6′R,7′S,8′E,11′S,12′R)-6-chloro-7′-((4-(dimethylamino)-1-piperidinyl)methyl)-7′-methoxy-11′,12′-dimethyl-3,4-dihydro-2H,15′H-spiro[naphthalene-1,22′-[20]oxa[13]thia[1,14]diazatetracyclo [14.7.2.0~3,6~.0~19,24~]pentacosa[8,16,18,24]tetraen]-15′-one 13′,13′-dioxide] | – | – | 558 nM | 0.215 nM | –
C=C(F)C[C@@]1(O)/C=C/C[C@H](C)[C@@H](C)S(=O)(=O)NC(=O)c2ccc3c(c2)N(C[C@@H]2CC[C@H]21)C[C@@]1(CCCc2cc(Cl)ccc21)CO3 [Example 100564, (1S,3′R,6′R,7′R,8′E,11′S,12′R)-6-chloro-7′-(2-fluoro-2-propen-1-yl)-7′-hydroxy-11′,12′-dimethyl-3,4-dihydro-2H,15′H-spiro[naphthalene-1,22′-[20]oxa[13]thia[1,14]diazatetracyclo [14.7.2.0~3,6~.0~19,24~]pentacosa[8,16,18,24]tetraen]-15′-one 13′,13′-dioxide] | 1430 nM | 0.333 nM | – | – | –
CO[C@@]1(CN2CCN3CCCC[C@@H]3C2)/C=C/[C@H](C)[C@H](C)CS(=O)(=O)NC(=O)c2ccc3c(c2)N(C[C@@H]2CC[C@H]21)C[C@@]1(CCCc2cc(Cl)ccc21)CO3 [Example 163, (1S,3′R,6′R,7′S,8′E,10′S,11′S)-6-chloro-7′-methoxy-10′,11′-dimethyl-7′-((9aR)-octahydro-2H-pyrido[1,2-a]pyrazin-2-ylmethyl)-3,4-dihydro-2H,15′H-spiro[naphthalene-1,22′-[20]oxa[13]thia[1,14]diazatetracyclo [14.7.2.0~3,6~.0~19,24~]pentacosa[8,16,18,24]tetraen]-15′-one 13′,13′-dioxide] | – | – | 130 nM | 0.179 nM | –
C[C@@H]1[C@@H](C)C/C=C/[C@@](O)(c2cnc(Cl)n2C)[C@@H]2CC[C@H]2CN2C[C@@]3(CCCc4cc(Cl)ccc43)COc3ccc(cc32)C(=O)NS1(=O)=O (single isomer, unassigned) [Example 100551] | 142 nM | 0.174 nM | – | – | –
C[C@@H]1[C@@H](C)CCC[C@](C)(O)[C@@H]2CC[C@H]2CN2C[C@@]3(CCCc4cc(Cl)ccc43)COc3ccc(cc32)C(=O)NS1(=O)=O [Example 100049, (1S,3′R,6′R,7′S,11′S,12′R)-6-chloro-7′-hydroxy-7′,11′,12′-trimethyl-3,4-dihydro-2H,15′H-spiro[naphthalene-1,22′-[20]oxa[13]thia[1,14]diazatetracyclo [14.7.2.0~3,6~.0~19,24~]pentacosa[16,18,24]trien]-15′-one 13′,13′-dioxide] | 2150 nM | 1.26 nM | – | – | –
CO[C@]1(C#CCN2CCOCC2)/C=C/C[C@H](C)[C@@H](C)S(=O)(=O)NC(=O)c2ccc3c(c2)N(C[C@@H]2CC[C@H]21)C[C@@]1(CCCc2cc(Cl)ccc21)CO3 [Example 100409, (1S,3′R,6′R,7′R,8′E,11′S,12′R)-6-chloro-7′-methoxy-11′,12′-dimethyl-7′-(3-(4-morpholinyl)-1-propyn-1-yl)-3,4-dihydro-2H,15′H-spiro[naphthalene-1,22′-[20]oxa[13]thia[1,14]diazatetracyclo [14.7.2.0~3,6~.0~19,24~]pentacosa[8,16,18,24]tetraen]-15′-one 13′,13′-dioxide] | – | 0.124 nM | – | – | 206 nM
CCO[C@]1(CN2CCN3CCOC[C@@H]3C2)/C=C/C[C@H](C)[C@@H](CC2CCC2)S(=O)(=O)NC(=O)c2ccc3c(c2)N(C[C@@H]2CC[C@H]21)C[C@@]1(CCCc2cc(Cl)ccc21)CO3 [Example 45, (1S,3′R,6′R,7′R,8′E,11′S,12′R)-6-chloro-12′-(cyclobutylmethyl)-7′-ethoxy-7′-((9aS)-hexahydropyrazino[2,1-c][1,4]oxazin-8(1H)-ylmethyl)-11′-methyl-3,4-dihydro-2H,15′H-spiro[naphthalene-1,22′-[20]oxa[13]thia[1,14]diazatetracyclo [14.7.2.0~3,6~.0~19,24~]pentacosa[8,16,18,24]tetraen]-15′-one 13′,13′-dioxide] | – | – | 891 nM | 0.245 nM | –
COCC[C@@H]1[C@@H](C)C/C=C/[C@](CN2CCN(C3COC3)CC2)(OC)[C@@H]2CC[C@H]2CN2C[C@@]3(CCCc4cc(Cl)ccc43)COc3ccc(nc32)C(=O)NS1(=O)=O [Example 23, (1S,3′R,6′R,7′S,8′E,11′S,12′R)-6-chloro-7′-methoxy-12′-(2-methoxyethyl)-11′-methyl-7′-((4-(3-oxetanyl)-1-piperazinyl)methyl)-3,4-dihydro-2H,15′H-spiro[naphthalene-1,22′-[20]oxa[13]thia[1,14,25]triazatetracyclo [14.7.2.0~3,6~.0~19,24~]pentacosa[8,16,18,24]tetraen]-15′-one 13′,13′-dioxide] | – | – | 24 nM | 0.071 nM | –
